Measured values: BindingDB's records for doi:10.1016/j.ejmech.2013.04.003 (Seoul National University, 2013)

Legend:
[1] = molecular target: T1, Transient receptor potential cation channel subfamily V member 1 (Homo sapiens, UniProt Q8NER1); assay: Antagonist activity at human TRPV1 expressed in CHOK1 cells assessed as inhibition of pH 6 to 6.3-induced activity by FLIPR assay
[2] = molecular target: T1, Transient receptor potential cation channel subfamily V member 1; assay: Antagonist activity at human TRPV1 expressed in CHOK1 cells assessed as inhibition of capsaicin-induced activity by FLIPR assay

T1 sequence (Q8NER1 whole entry): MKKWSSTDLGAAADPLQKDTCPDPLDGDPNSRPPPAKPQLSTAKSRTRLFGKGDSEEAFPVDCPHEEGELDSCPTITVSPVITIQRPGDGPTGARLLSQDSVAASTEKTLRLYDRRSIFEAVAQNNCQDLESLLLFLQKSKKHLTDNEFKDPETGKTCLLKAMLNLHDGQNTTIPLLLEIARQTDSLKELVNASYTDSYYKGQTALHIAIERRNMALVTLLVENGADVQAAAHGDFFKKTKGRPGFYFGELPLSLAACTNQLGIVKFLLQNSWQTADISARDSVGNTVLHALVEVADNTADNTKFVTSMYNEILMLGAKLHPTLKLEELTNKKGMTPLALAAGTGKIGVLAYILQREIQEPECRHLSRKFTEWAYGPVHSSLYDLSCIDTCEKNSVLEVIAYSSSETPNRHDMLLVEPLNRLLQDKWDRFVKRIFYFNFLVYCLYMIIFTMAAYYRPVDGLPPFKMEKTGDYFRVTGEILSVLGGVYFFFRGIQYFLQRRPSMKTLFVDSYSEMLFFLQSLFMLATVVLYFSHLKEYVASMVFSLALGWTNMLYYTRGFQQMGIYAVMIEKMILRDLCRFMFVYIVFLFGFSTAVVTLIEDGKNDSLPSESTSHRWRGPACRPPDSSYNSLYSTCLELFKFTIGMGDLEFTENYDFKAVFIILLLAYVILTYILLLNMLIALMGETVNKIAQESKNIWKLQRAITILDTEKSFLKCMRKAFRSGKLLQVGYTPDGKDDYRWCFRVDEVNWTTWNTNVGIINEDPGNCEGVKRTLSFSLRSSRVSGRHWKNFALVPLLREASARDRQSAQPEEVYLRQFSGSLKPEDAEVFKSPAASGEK

IC50 [1]: 0.161 µM | Ki [2]: 0.0015 µM
Compound: CC(C(=O)NCc1ccc(C(F)(F)F)nc1OCCCOc1ccccc1)c1ccc(NS(C)(=O)=O)c(F)c1 (configuration not stated)
